# Source: PubChem BioAssay AID248 (DTP/NCI, 2004)
# Where “and” joins values, the source holds several entries; their conditions need not be identical. Equal values may be shown once. Inconclusive results and toxic doses are left out.
# System: L1210 leukemia ip in BDF1 mice, survival T/C
# Assay: NCI In Vivo Anticancer Drug Screen. Data for tumor model L1210 Leukemia (intraperitoneal) in B6D2F1 (BDF1) mice
# Conditions: endpoint: mean survival time, higher = longer survival
# Outline: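 Survival endpoint. Drug-treated group vs vehicle group, expressed as T divided by C. Tumor passaged by transplantation.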
# [1] = dose: 100.0 mg/kg/injection, schedule: Q04DX002 (ip), vehicle: Klucel (hydroxypropylcellulose) (HPC)
# [2] = dose: 200.0 mg/kg/injection, schedule: Q04DX002 (ip), vehicle: Klucel (hydroxypropylcellulose) (HPC)
# [3] = dose: 400.0 mg/kg/injection, schedule: Q04DX002 (ip), vehicle: Klucel (hydroxypropylcellulose) (HPC)
# [4] = dose: 100.0 mg/kg/injection, schedule: Q01DX001 (ip), vehicle: Klucel (hydroxypropylcellulose) (HPC)
# [5] = dose: 100.0 mg/kg/injection, schedule: Q04DX003 (ip), vehicle: Klucel (hydroxypropylcellulose) (HPC)
# [6] = dose: 200.0 mg/kg/injection, schedule: Q01DX001 (ip), vehicle: Klucel (hydroxypropylcellulose) (HPC)
# [7] = dose: 200.0 mg/kg/injection, schedule: Q04DX003 (ip), vehicle: Klucel (hydroxypropylcellulose) (HPC)
# [8] = dose: 400.0 mg/kg/injection, schedule: Q01DX001 (ip), vehicle: Klucel (hydroxypropylcellulose) (HPC)
# [9] = dose: 400.0 mg/kg/injection, schedule: Q04DX003 (ip), vehicle: Klucel (hydroxypropylcellulose) (HPC)
# [10] = dose: 100.0 mg/kg/injection, schedule: Q01DX009 (ip), vehicle: saline with Tween-80
# [11] = dose: 200.0 mg/kg/injection, schedule: Q01DX009 (ip), vehicle: saline with Tween-80
# [12] = dose: 100.0 mg/kg/injection, schedule: Q01DX009 (ip), vehicle: Klucel (hydroxypropylcellulose) (HPC)
# [13] = dose: 200.0 mg/kg/injection, schedule: Q01DX009 (ip), vehicle: Klucel (hydroxypropylcellulose) (HPC)
# [14] = dose: 400.0 mg/kg/injection, schedule: Q01DX009 (ip), vehicle: Klucel (hydroxypropylcellulose) (HPC)
# [15] = dose: 100.0 mg/kg/injection, schedule: Q04DX003 (ip), vehicle: saline with Tween-80
# [16] = dose: 200.0 mg/kg/injection, schedule: Q04DX003 (ip), vehicle: saline with Tween-80
# [17] = dose: 400.0 mg/kg/injection, schedule: Q01DX009 (ip), vehicle: saline with Tween-80
# [18] = dose: 400.0 mg/kg/injection, schedule: Q04DX003 (ip), vehicle: saline with Tween-80
smiles,measurement,setting,value
O=C(O)c1ccc(NC(=S)S)cc1,T/C,[1],103 % of control
same,T/C,[2],98 % of control
same,T/C,[3],98 % of control
O=C(O)C1CCCCC1C(=O)O (centres undefined),T/C,[4],103 % of control
same,T/C,[5],101 % of control
same,T/C,"dose: 100.0 mg/kg/injection, schedule: Q04DX003 (ip), vehicle: saline",95 % of control
same,T/C,[6],91 % of control
same,T/C,[7],97 % of control
same,T/C,"dose: 200.0 mg/kg/injection, schedule: Q04DX003 (ip), vehicle: saline",98 % of control
same,T/C,[8],93 % of control
same,T/C,[9],97 % of control
same,T/C,"dose: 400.0 mg/kg/injection, schedule: Q04DX003 (ip), vehicle: saline",98 % of control
Cc1cc(C)c(C(=O)O)cc1C(=O)O,T/C,"dose: 50.0 mg/kg/injection, schedule: Q01DX009 (ip), vehicle: saline with Tween-80",100 % of control
same,T/C,[10],100 % of control
same,T/C,[11],106 % of control
CCCC(=O)N1CCCCC1C (centres undefined),T/C,[1],112 % of control
same,T/C,[2],89 % of control
O=C(Nc1cccc(C2=NCCCN2)c1)Nc1cc(C(=O)Nc2ccc(C3=NCCCN3)cc2)ccc1C(=O)Nc1ccc(C2=NCCCN2)cc1,T/C,"dose: 0.47 mg/kg/injection, schedule: Q01DX Z (ip), vehicle: saline",103 % of control
same,T/C,"dose: 0.94 mg/kg/injection, schedule: Q01DX Z (ip), vehicle: saline",95 % of control
same,T/C,"dose: 1.88 mg/kg/injection, schedule: Q01DX Z (ip), vehicle: saline",104 % of control
same,T/C,"dose: 3.75 mg/kg/injection, schedule: Q01DX Z (ip), vehicle: saline",117 % of control and 265 % of control
same,T/C,"dose: 7.5 mg/kg/injection, schedule: Q01DX Z (oral), vehicle: saline",98 % of control
same,T/C,"dose: 15.0 mg/kg/injection, schedule: Q01DX Z (ip), vehicle: saline",96 % of control
same,T/C,"dose: 15.0 mg/kg/injection, schedule: Q01DX Z (oral), vehicle: saline",104 % of control
same,T/C,"dose: 30.0 mg/kg/injection, schedule: Q01DX Z (oral), vehicle: saline",104 % of control
same,T/C,"dose: 60.0 mg/kg/injection, schedule: Q01DX Z (oral), vehicle: saline",104 % of control
CC(=O)NCc1cc(C)c(C)cc1C,T/C,[12],100 % of control
same,T/C,[5],101 % of control
same,T/C,[13],104 % of control
same,T/C,[7],97 % of control
same,T/C,[14],96 % of control
same,T/C,[9],109 % of control
N#CCCn1cnc2c(N)ncnc21,T/C,[10],96 % of control
same,T/C,[15],103 % of control
same,T/C,[11],96 % of control
same,T/C,[16],103 % of control
same,T/C,[17],91 % of control
same,T/C,[18],104 % of control
C[C@H]1CN1C1=CC(=O)C(N2C[C@@H]2C)=CC1=O,T/C,"dose: 0.88 mg/kg/injection, schedule: Q04DX003 (ip), vehicle: other",106 % of control
same,T/C,"dose: 1.0 mg/kg/injection, schedule: Q01DX001 (ip), vehicle: other",108 % of control
same,T/C,"dose: 1.56 mg/kg/injection, schedule: Q01DX009 (ip), vehicle: other",120 % of control
same,T/C,"dose: 2.0 mg/kg/injection, schedule: Q01DX001 (ip), vehicle: other",105 % of control
same,T/C,"dose: 2.0 mg/kg/injection, schedule: Q04DX003 (ip), vehicle: Klucel (hydroxypropylcellulose) (HPC)",108 % of control
same,T/C,"dose: 2.0 mg/kg/injection, schedule: Q04DX003 (ip), vehicle: other",120 % of control
same,T/C,"dose: 4.0 mg/kg/injection, schedule: Q04DX003 (ip), vehicle: Klucel (hydroxypropylcellulose) (HPC)",117 % of control
same,T/C,"dose: 5.0 mg/kg/injection, schedule: Q01DX009 (ip), vehicle: other",166 % of control
same,T/C,"dose: 8.0 mg/kg/injection, schedule: Q04DX003 (ip), vehicle: Klucel (hydroxypropylcellulose) (HPC)",124 % of control
same,T/C,"dose: 9.0 mg/kg/injection, schedule: Q04DX003 (ip), vehicle: saline with Tween-80",95 % of control
same,T/C,"dose: 9.5 mg/kg/injection, schedule: Q01DX001 (ip), vehicle: other",114 % of control
same,T/C,"dose: 12.0 mg/kg/injection, schedule: Q01DX009 (ip), vehicle: other",92 % of control
same,T/C,"dose: 25.0 mg/kg/injection, schedule: Q04DX003 (ip), vehicle: saline with Tween-80",105 % of control
CCCCCC(CN(C)C)C(=O)/C=C/c1ccc(Cl)c(Cl)c1 (centres undefined),T/C,"dose: 12.5 mg/kg/injection, schedule: Q04DX003 (ip), vehicle: acetone",95 % of control
same,T/C,"dose: 25.0 mg/kg/injection, schedule: Q04DX003 (ip), vehicle: acetone",92 % of control
CCOc1cc(/C=N\N=C\c2ccc(O)c(OCC)c2)ccc1O,T/C,[12],93 % of control
same,T/C,[13],94 % of control
same,T/C,[14],88 % of control
COc1ccc(NC(=O)Nc2ccccc2Cl)c(Cl)c1,T/C,"dose: 100.0 mg/kg/injection, schedule: Q04DX002 (ip), vehicle: saline with Tween-80",90 % of control
same,T/C,"dose: 200.0 mg/kg/injection, schedule: Q04DX002 (ip), vehicle: saline with Tween-80",87 % of control
same,T/C,"dose: 400.0 mg/kg/injection, schedule: Q04DX002 (ip), vehicle: saline with Tween-80",87 % of control
CN(CCNC(=O)C1C(c2ccccc2)C1c1ccccc1)C(=O)C1C(c2ccccc2)C1c1ccccc1 (centres undefined),T/C,[1],95 % of control
same,T/C,[2],89 % of control
same,T/C,[3],89 % of control
NC1(C(=O)O)Cc2ccccc2C1,T/C,"dose: 50.0 mg/kg/injection, schedule: Q01DX001 (ip), vehicle: olive oil, sesame oil, peanut oil",101 % of control
same,T/C,"dose: 100.0 mg/kg/injection, schedule: Q01DX001 (ip), vehicle: olive oil, sesame oil, peanut oil",101 % of control
same,T/C,"dose: 200.0 mg/kg/injection, schedule: Q01DX001 (ip), vehicle: olive oil, sesame oil, peanut oil",112 % of control
same,T/C,"dose: 400.0 mg/kg/injection, schedule: Q01DX001 (ip), vehicle: olive oil, sesame oil, peanut oil",104 % of control
O=C1c2cc([N+](=O)[O-])ccc2-c2cc(F)ccc21,T/C,"dose: 50.0 mg/kg/injection, schedule: Q01DX001 (ip), vehicle: carboxymethylcellulose (CMC)",104 % of control
same,T/C,"dose: 100.0 mg/kg/injection, schedule: Q01DX001 (ip), vehicle: carboxymethylcellulose (CMC)",95 % of control
same,T/C,"dose: 200.0 mg/kg/injection, schedule: Q01DX001 (ip), vehicle: carboxymethylcellulose (CMC)",93 % of control
same,T/C,"dose: 400.0 mg/kg/injection, schedule: Q01DX001 (ip), vehicle: carboxymethylcellulose (CMC)",90 % of control
Cc1ccc(S(=O)(=O)OCC2OC(n3cnc4c(N)ncnc43)C(OS(=O)(=O)c3ccc(C)cc3)C2N=[N+]=[N-])cc1 (centres undefined),T/C,"dose: 100.0 mg/kg/injection, schedule: Q01DX005 (ip), vehicle: saline",106 % of control
same,T/C,"dose: 200.0 mg/kg/injection, schedule: Q01DX005 (ip), vehicle: saline",92 % of control
CC(=O)n1cc(C2CC(=O)OC3=C2CC(=O)C(C)(C)C3)c2ccccc21 (centres undefined),T/C,[10],100 % of control
same,T/C,[15],95 % of control
same,T/C,[11],96 % of control
same,T/C,[16],101 % of control
same,T/C,[17],91 % of control
same,T/C,[18],101 % of control
COC(=O)C1=COC(C)C2CN3CCc4c([nH]c5cc(OC)ccc45)C3CC12 (centres undefined),T/C,"dose: 22.0 mg/kg/injection, schedule: Q01DX Z (ip), vehicle: other",100 % of control
same,T/C,"dose: 44.0 mg/kg/injection, schedule: Q01DX Z (ip), vehicle: other",86 % of control
CN1CCC(CCOCc2ccccc2)(CN2c3ccccc3Sc3ccccc32)C1 (centres undefined),T/C,"dose: 6.25 mg/kg/injection, schedule: Q01DX009 (ip), vehicle: saline with Tween-80",93 % of control
same,T/C,"dose: 12.5 mg/kg/injection, schedule: Q01DX009 (ip), vehicle: saline with Tween-80",98 % of control
same,T/C,"dose: 25.0 mg/kg/injection, schedule: Q01DX009 (ip), vehicle: saline with Tween-80",93 % of control
Cc1cc(C)c(Br)cc1N,T/C,[4],90 % of control
same,T/C,[6],95 % of control
same,T/C,[8],102 % of control
O=C(OC(c1c(Cl)cccc1Cl)c1nccc2ccccc12)c1ccccc1 (centres undefined),T/C,"dose: 100.0 mg/kg/injection, schedule: Q01DX001 (ip), vehicle: steriod suspending solution",95 % of control
same,T/C,"dose: 200.0 mg/kg/injection, schedule: Q01DX001 (ip), vehicle: steriod suspending solution",97 % of control
same,T/C,"dose: 400.0 mg/kg/injection, schedule: Q01DX001 (ip), vehicle: steriod suspending solution",88 % of control
